What was measured:
[1] = tested on: critical sized femoral defect; assay: Mouse critical sized femoral defect with scaffold, x-ray follow-up; type: in vivo, C57BL/6 male mice
Text: A critical sized femoral defect was created in the right femur of ten-week old C57BL/6 male mice. Our scaffold was inserted into the defect site. […] Referring now to FIG. 6, a critical sized femoral defect was created in the right femur of ten week old C57BL/6 male mice. A scaffold was inserted into the defect site.

[2] = tested on: critical sized defect in the rat femur; assay: Long Evans rat femur gap model, scaffold in 5 mm segmental defect; type: in vivo, Long Evans rats
Text: A pilot study utilizing the Long Evans rat femur gap model which has been approved by the Laboratory Animal Care and Usage Committee (IACUC) at Indiana University was used to test a new method for repairing bone gaps. In brief, tube shape scaffolds with 4 mm external diameter, 2 mm internal diameter and 5 mm in height were manufactured from poly(propylene) fumarate/tricalcium phosphate. […] In the control group, the scaffolds were left untreated (n=3/group). Segmental defects of 5 mm were created in the right femurs of male Long Evans rats. The defect was filled with a 5 mm scaffold and secured with an intramedullary K-wire placed in retrograde fashion. Femurs were imaged by x-ray to assure proper placement and integrity of the scaffold. The rats were then imaged using x-ray at three week intervals to assess continued healing. At post-operative weeks 6 and 15, rats were euthanized and femurs analyzed by x-ray, microCT, and histology.
At 15 weeks, mineralized callus was seen bridging the two bone ends. In some areas adjacent to the scaffolds, isolated patches of cartilage with hypertrophic chondrocytes were observed, indicating the tissues were undergoing endochondral bone formation.

[3] = tested on: C57BL/6 bone marrow macrophages (BMMs); assay: Osteoclast formation from bone marrow macrophages cultured with M-CSF and RANKL, TRAP staining; type: cell-based, mouse
Protocol: FIG. 2. Bar graph showing C57BL/6 bone marrow macrophages (BMMs) were cultured with M-CSF (30 ng/ml) and RANKL (50 ng/ml). While culturing C57BL/6 BMMs with M-CSF and RANKL (no TPO) results in the generation of mature TRAP^+ multinucleated osteoclasts (OCs) (>3 nuclei), culturing these cells with TPO (0.1-100 ng/ml) enhances the number OCs by >2-fold. *p<0.05
FIG. 3A. Representative micrograph of cultures of BMMs stimulated with M-CSF (30 ng/ml) and RANKL (50 ng/ml).
FIG. 3B. Representative micrograph of cultures of BMMs stimulated with M-CSF (30 ng/ml) and RANKL (50 ng/ml).

thrombopoietin [TPO]
bridging callus formation (x-ray) ([1]; 2 weeks postoperatively, TPO 1 μg, BMP-2 4 μg in scaffold): remain unbridged | bridging callus formation (x-ray) ([1]; 4-6 weeks postoperatively, TPO 1 μg in scaffold): have bridged | restoration of bone contour compared with BMP-2 scaffolds ([1]; 4-6 weeks, TPO 1 μg vs BMP-2 4 μg): better restores the original contour of the bone | healing of critical sized defect (microCT) ([2]; 10 μg in scaffold, post-operative week 15, n=3/group): robustly healed | cortex and trabeculae of the callus compared to callus induced by BMP-2 ([2]; 10 μg in scaffold, week 15, BMP-2 from an earlier study): thicker | remodeling compared with BMP-2 ([2]; 15 weeks post-operative, μCT (FIG. 5)): more extensive remodeling | mature multinucleated OCs developed (TRAP staining) ([3]; TPO 100 ng/ml, M-CSF 30 ng/ml, RANKL 50 ng/ml): Significantly more OCs developed | enhancement of the number of mature TRAP+ multinucleated osteoclasts (OCs) ([3]; TPO 0.1-100 ng/ml, M-CSF 30 ng/ml, RANKL 50 ng/ml, vs no TPO, p<0.05): > 2 fold | increase of osteoclastogenesis ([3]; osteoclast progenitors treated with TPO in vitro): up to 5 fold

Reference: patent publication US10709764B2, “Use of compounds with thrombopoietic activity to promote bone growth and healing” (Osteofuse, Inc., priority 2010, dated 2020)
